# Measured values reported in patent publication US20050245399A1, “Pyrazole derivatives as herbicidal compositions containing them” (ISHIHARA SANGYO KAISHA, LTD., priority 2004, published 2005).
# Columns and labels:
# Type in all cases: in vivo
# [1] = test system: japanese bulrush (Scirpus juncoides: SCPJO); assay: Test Example 3 water application herbicidal activity (paddy), SCPJO; conditions: 63 g a.i./ha, water application under submerged condition at 0.5 leaf stage, visually observed 14th day after application; 0 = untreated control, 100 = complete kill
# How it was run: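 Submerged application in flooded paddy soil (3–4 cm water); weeds treated at 0.5-leaf stage, transplanted rice 4 d after transplanting. Scored visually as % growth control: weeds at 14 d, rice at 21 d.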
# [2] = test system: green foxtail (Setaria viridis L.): SETVI; assay: Test Example 1 pre-emergence herbicidal activity, SETVI; conditions: Rate 63 g a.i./ha, visually observed 20th to 23rd day after application
# How it was run: (§1)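 Compound was delivered by small sprayer to sown upland soil one day after sowing, before emergence, at 500 L/ha spray volume. Plant growth was assessed visually around 3 weeks later (days 20–23), 100% denoting complete kill.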
# [3] = test system: rice (Oryza sativa L.): ORYSA; assay: Test Example 1 pre-emergence herbicidal activity, ORYSA; conditions: Rate 63 g a.i./ha, visually observed 20th to 23rd day after application
# How it was run: as §1
# [4] = test system: barnyardgrass (Echinochloa crus-galli L.), ECHCG; assay: Test Example 2 post-emergence (foliage treatment) herbicidal activity, ECHCG
# How it was run: (§2)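 Greenhouse pot test with upland field soil. Treatment: foliage spray, active ingredient at a predetermined amount, 500 L/ha, spreader 0.1% (v/v); leaf stage 0.1-1.5 (AMARE), 1.1-2.1 (ECHCG), 1.0-2.0 (DIGSA), 1.0-2 (ORYSA). Endpoint: visual % control, d20-23.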
# [5] = test system: prickly sida (Sida spinosa L.): SEDSP; assay: Test Example 1 pre-emergence herbicidal activity, SIDSP; conditions: Rate 63 g a.i./ha, visually observed 20th to 23rd day after application
# How it was run: as §1
# [6] = test system: crabgrass (Digitaria sanguinalis L.): DIGSA; assay: Test Example 1 pre-emergence herbicidal activity, DIGSA; conditions: Rate 63 g a.i./ha, visually observed 20th to 23rd day after application
# How it was run: as §1
# [7] = test system: rice (Oryza sativa L.), ORYSA; assay: Test Example 2 post-emergence (foliage treatment) herbicidal activity, ORYSA
# How it was run: as §2
# [8] = test system: rice (Oryza sativa L.: ORYSA); assay: Test Example 3 water application herbicidal activity (paddy), transplanted rice ORYSA; conditions: 63 g a.i./ha, water application 4th day after transplantation of 2 leaf stage rice, visually observed 21st day after application; 0 = untreated control, 100 = complete kill
# How it was run: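 Rice at 2-leaf stage is transplanted into flooded puddled soil and treated by water application 4 days later, at a predetermined active-ingredient dose. Crop injury is rated visually as growth control (0–100%) 21 days after treatment.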
# [9] = test system: velvetleaf (Abutilon theophrasti): ABUTH; assay: Test Example 1 pre-emergence herbicidal activity, ABUTH; conditions: Rate 63 g a.i./ha, visually observed 20th to 23rd day after application
# How it was run: as §1
# [10] = test system: velvetleaf (Abutilon theophrasti), ABUTH; assay: Test Example 2 post-emergence (foliage treatment) herbicidal activity, ABUTH
# How it was run: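 A small sprayer delivered the diluted WP or EC formulation (500 L/ha water, 0.1% v/v spreader) over emerged seedlings in upland soil pots. Damage relative to untreated plants was graded visually from 0 to 100% three weeks or so later (days 20-23).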
# [11] = test system: soybean (Glycine max Merr.): GLXMA; assay: Test Example 1 pre-emergence herbicidal activity, GLXMA; conditions: Rate 63 g a.i./ha, visually observed 20th to 23rd day after application
# How it was run: as §1
# [12] = test system: barnyardgrass (Echinochloa crus-galli L.): ECHCG; assay: Test Example 1 pre-emergence herbicidal activity, ECHCG; conditions: Rate 63 g a.i./ha, visually observed 20th to 23rd day after application
# How it was run: as §1
Compound,growth controlling degrees (%) SCPJO [1] [%],Pre-emergence Herbicidal Activity SETVI (growth controlling degree) [2] [%],Pre-emergence Herbicidal Activity ORYSA (growth controlling degree) [3] [%],"growth controlling degree, ECHCO ([4]; 63 g a.i./ha) [%]",Pre-emergence Herbicidal Activity SIDSP (growth controlling degree) [5] [%],Pre-emergence Herbicidal Activity DIGSP (growth controlling degree) [6] [%],"growth controlling degree, ORYSA ([7]; 63 g a.i./ha) [%]",growth controlling degrees (%) ORYSA [8] [%],Pre-emergence Herbicidal Activity ABUTH (growth controlling degree) [9] [%],"growth controlling degree, ABUTH ([10]; 63 g a.i./ha) [%]",Pre-emergence Herbicidal Activity GLXMA (growth controlling degree) [11] [%],Pre-emergence Herbicidal Activity ECHCG (growth controlling degree) [12] [%],"growth controlling degree, ECHCO ([4]; 125 g a.i./ha) [%]","growth controlling degree, ORYSA ([7]; 125 g a.i./ha) [%]","growth controlling degree, ABUTH ([10]; 125 g a.i./ha) [%]"
COc1c(Cl)cc(F)c(-c2nn(C)c(OC(F)F)c2Cl)c1N(C)C=O [Compound 1-6],60,50,20,60,40,100,40,50,50,100,0,20,,,
COc1c(Cl)cc(F)c(-c2nn(C)c(OC(F)F)c2Cl)c1NC(=O)C=C(C)C [Compound 1-9],100,100,80,80,100,98,80,30,100,100,90,80,,,
COc1c(Cl)cc(F)c(-c2nn(C)c(OC(F)F)c2Cl)c1N(C=O)C1CCCC1 [Compound 1-10],40,100,70,90,100,60,70,10,100,100,50,90,,,
COc1c(Cl)cc(F)c(-c2nn(C)c(OC(F)F)c2Cl)c1N(C(=O)C=C(C)C)C(=O)C=C(C)C [Compound 1-11],40,100,40,70,100,40,40,35,100,100,50,70,,,
COc1c(Cl)cc(F)c(-c2nn(C)c(OC(F)F)c2Cl)c1N(C=O)CC(=O)c1ccccc1 [Compound 1-12],50,95,40,70,100,30,40,35,100,100,40,70,,,
COc1c(Cl)cc(F)c(-c2nn(C)c(OC(F)F)c2Cl)c1N(C=O)CC(=O)c1ccc(Cl)cc1 [Compound 1-13],40,90,70,80,100,70,70,10,100,100,50,80,,,
COc1c(Cl)cc(F)c(-c2nn(C)c(OC(F)F)c2Cl)c1N(C=O)CC(C)=O [Compound 1-14],90,100,40,98,100,98,40,50,100,100,60,98,,,
CNc1c(OC)c(Cl)cc(F)c1-c1nn(C)c(OC(F)F)c1Cl [Compound 1-58],100,100,60,100,100,100,70,70,95,100,20,100,,,
COc1c(Cl)cc(F)c(-c2nn(C)c(OC(F)F)c2Cl)c1NC(C)C [Compound 1-59],80,100,50,100,100,100,40,40,95,100,30,60,,,
COc1c(Cl)cc(F)c(-c2nn(C)c(OC(F)F)c2Cl)c1NC1CCCC1 [Compound 1-60],60,30,0,100,0,10,40,30,30,100,0,0,,,
"Cn1nc(-c2c(F)cc(Cl)c(OC(F)F)c2N)c(Cl)c1OC(F)F [Compound 1-81, 3-chloro-6-[4-chloro-5-(difluoromethoxy)-1-methyl-1H-pyrazol-3-yl]-2-(difluoromethoxy)-5-fluorobenzenamine]",100,100,20,,100,100,,35,100,,20,90,100,70,100
